Test results published in US20060099712A1, “Correlation of anti-cancer activity of dyes with redox potentials” (Eastman Kodak Company, priority 2004, published 2006).

System: CX-1 Human Colon Carcinoma
Test: Clonogenic dye screening assay, CX-1 cells (IC50)
Assay type: cell-based
Parameters: CX: unit not given here
Conditions: for CX: CX-1 cells; for CV/CX: selectivity ratio of IC50 values; for CX (IC50 in the CX-1 cell line): 3 hrs treatment, colonies after 7-10 days, unit from method b117-118; for CV/CX (selectivity, kill ratio): ratio of IC50 in normal CV-1 line to IC50 in carcinoma CX-1 line
Excerpt: CX-1 is a cancerous human colon adenocarcinoma cell line. CV-1 is a non-cancerous control, which is a kidney epithelial cell line from an African green monkey. IC50 is the dye concentration at which 50% of the cells are killed. Selectivity or kill ratio is defined as the ratio of […] at IC50 for both CX-1 and CV-1. A ratio with a high number indicates a high selectivity.
The dyes were screened in two cell lines. CX-1 is a human colon adenocarcinoma cell line. CV-1 is a kidney epithelial cell line from an African green monkey. CV-1 was used as a reference because no normal human epithelial cell line is available for clonogenic assay.
In the initial screen, dyes were examined at six different concentrations to generate a dose response curve. An IC50 value, the concentration at which 50% of the cells are killed, was then calculated. Initially, a dye concentration of 1.0 μg/mL was the highest examined for the CX-1 cell line and 0.005 μg/mL was the lower limit. The corresponding limits on the CV-1 cell line were […].
The screening procedure used a response curve that was determined from eight dye concentrations. The upper and lower limits of CX-1 were 0.32 and 0.0015 μg/mL, respectively, and the corresponding revised limits on CV-1 were 3.2 and 0.025 μg/mL. The screening results were reported by assigning an IC50 value to each dye for the CV-1 and CX-1 cell lines. These values will be referred to herein simply as CV and CX. The most desirable result would be to have a dye that was highly toxic to carcinoma cells but nontoxic to ‘normal’ cells. One measure of this type of selectivity is the ratio of the IC50's in the normal cell line to that in the carcinoma line, CV/CX.
Compounds are screened via an in vitro assay. CV-1 and CX-1 cells are seeded into separate assay plates. The plates are treated with varying concentrations of test compounds, rinsed, and colonies allowed to grow. IC50's are determined and drugs evaluated based on their selectivity and toxicity. Assay Steps: • I. Seeding Cells • II. Weighing • III. Preparation of Solution • IV. Treatment • V. Rinsing and Feeding • VI. Fixing • VII. IC50 Determination I. Seeding Cells
The cells should be seeded 16-30 hours before treatment. The media for CV-1 cells is DME+5% calf serum +5% Nuserum. The media for CX-1 cells is RPMI/DME (50/50)+5% calf serum +5% Nuserum.
(c) number of cells based on 2000 CX-1 cells/well and 1000 CV-1 cells/well. NOTE: Always make enough cell suspension for 1 extra plate to allow for volume loss during transfers.
• (a) For CV-1: 256 ug/ml-256 ul of 1 mg/ml stock +744 ul DMSO • (b) For CX-1: 25.6 ug/ml-100 ul of 256 ug/ml+900 ul DMSO IV. Treatment • 1. Each plate is treated with 4 test compounds, one positive control and one negative control. • 2. Serial dilutions of the compounds are made in the following way:
2 multi-well pipetters are used. One is set for 10 ul and one for 200 ul. Each is equipped with 6 tips spaced such that they fit into the 6 rows of a plate. 390 ul of media is added to the first column of each plate. 10 ul each of 4 compound solutions, a positive and a negative control are taken up and put into the first column of wells. The 200 ul pipetter is then placed in the same wells, pipetted up and down 3 times and two 200 ul aliquots are moved to the next column of wells. This column is pipetted up and down 3 times and 400 ul moved to column 3, etc. The final 400 ul excess from column 8 is discarded.
• 3. Label the plates along the front, each row −1 compound. • 4. Incubate the plates at 37° C. for 3 hrs. V. Rinsing • 1. Prepare several bottles of CX-1 and CV-1 media. • 2. Check for precipitate in first column of each plate and note. • 3. Starting with the plates treated first, rinse several plates at a time by aspirating the treatments and refilling each well with 0.5-1.0 ml of the rinse media. Aspirate and refill 2 more times for a total of 3 rinses. • 4.

[1] = Table XVII, benzotellurazole derivatives

CX (IC50 in the CX-1 cell line)	SMILES	CV/CX (selectivity, kill ratio)	also measured
–	CCN1/C(=C/C(C)=C/c2[te]c3ccc(C)cc3[n+]2CC)Sc2ccc(Cl)cc21 [R=E, X=S, Z1=5-Me, R2=Me, Z2=5-Cl]	–	CX [1]: 0.10; CV/CX (Table XVII): 10.0
–	CCN1/C(=C/C(C)=C/c2[te]c3ccc(C)cc3[n+]2CC)Sc2ccc(OC)cc21 [R=E, X=S, Z1=5-Me, R2=Me, Z2=5-MeO]	–	CX [1]: 0.03; CV/CX (Table XVII): 33.3
–	CCN1/C(=C/C(C)=C/c2[te]c3ccc(C)cc3[n+]2CC)Sc2ccccc21 [R=E, X=S, Z1=5-Me, R2=Me, Z2=H]	–	CX [1]: 0.03; CV/CX (Table XVII): 26.6
–	CCN1/C(=C/C(=C/c2[te]c3ccc(C)cc3[n+]2CC)c2ccccc2)Sc2ccccc21 [R=E, X=S, Z1=5-Me, R2=Ph, Z2=H]	–	CX [1]: 0.3; CV/CX (Table XVII): 30.0
–	CCN1/C(=C/C(=C/c2[te]c3ccc(OC)cc3[n+]2CC)c2ccccc2)Sc2ccccc21 [R=E, X=S, Z1=5-MeO, R2=Ph, Z2=H]	–	CX [1]: 0.3; CV/CX (Table XVII): 26.6
–	CCN1C(=CC=Cc2[te]c3ccc(C)cc3[n+]2CC)[Te]c2ccc(C)cc21 [R=E, X=Te, Z1=5-Me, R2=H, Z2=5-Me]	–	CX [1]: 0.052; CV/CX (Table XVII): 7.7
–	CN1/C(=C/C=C/c2[te]c3ccc(O)cc3[n+]2C)[Te]c2ccc(O)cc21 [R=M, X=Te, Z1=5-OH, R2=H, Z2=5-OH]	–	CV/CX (Table XVII): 7.6
–	CN1C(=CC=Cc2[te]c3ccccc3[n+]2C)[Te]c2ccccc21 [R=M, X=Te, Z1=H, R2=H, Z2=H]	–	CX [1]: 0.30; CV/CX (Table XVII): 16.7
–	CCN1/C(=C/C=C/c2[te]c3cc(OC)c(OC)cc3[n+]2C)Sc2ccccc21 [R=M/E, X=S, Z1=5,6-MeO, R2=H, Z2=H]	–	CX [1]: 0.5; CV/CX (Table XVII): 2.0
–	CCN1C(=CC=Cc2sc3ccccc3[n+]2CC)N(CC)c2cc(Cl)c(Cl)cc21 [benzimidazole(5,6-Cl)]	–	CX (Table XVI, unsymmetrical dyes): 0.260; CV/CX (Table XVI): 0.8
–	CCN1/C(=C/C=C/c2sc3c([n+]2C)CCCC3)Sc2ccccc21.[I-] [benzothiazole(4,5,6,7-H)]	–	CX (Table XVI, unsymmetrical dyes): <0.005; CV/CX (Table XVI): >60.0
>0.32 µg/mL	O=C(C[n+]1c(/C=C/C=C2/Nc3ccccc3S2)sc2ccccc21)N1CCOCC1 [drawing 36|CC(═O)morpholino|H]	10.0	–
>0.32 µg/mL	CCSC(CCN1/C(=C/C=C/c2sc3ccccc3[n+]2CCC(SCC)SCC)Sc2ccccc21)SCC [drawing 36|CCC(SEt)2|CCC(SEt)2]	<4.1	–
>0.32 µg/mL	OCCN1C(=CC=Cc2sc3ccccc3[n+]2CCO)Sc2ccccc21 [drawing 36|CCOH|CCOH]	10.0	CV/CX (selectivity, kill ratio) (listed as N,N′-di(2-hydroxyethyl) dye): not active
0.015 µg/mL	CSCCN1/C(=C\C=C\c2sc3ccccc3[n+]2CCSC)Sc2ccccc21 [drawing 36|CCSMe|CCSMe]	12	–
0.03 µg/mL	C=C(Br)C[n+]1c(/C=C/C=C2\Oc3ccccc3N2CC)sc2ccccc21 [drawing 37|CC(Br)═C|Et]	33.3	–
–	CCN1/C(=C/C=C/c2sc3ccccc3[n+]2CC(N)=O)Oc2ccccc21 [drawing 37|CC(═O)N|Et]	>10.0	–
0.3 µg/mL	CCN1/C(=C/C=C/c2sc3ccccc3[n+]2CC(=O)c2ccc(O)cc2O)Oc2ccccc21 [drawing 37|CC(═O)Ph-2,4-OH|Et]	>33.3	–
>1.0 µg/mL	CCN1/C(=C\C=C\c2sc3ccccc3[n+]2CC(=O)c2ccc(O)c(O)c2)Oc2ccccc21 [drawing 37|CC(═O)Ph-3,4-OH|Et]	10.0	–

CX (IC50 in the CX-1 cell line)	SMILES	CV/CX (selectivity, kill ratio)	also measured
0.3 µg/mL	CCN1/C(=C/C=C/c2sc3ccccc3[n+]2CC(=O)c2ccccc2)Oc2ccccc21 [drawing 37|CC(═O)Ph|Et]	10.0	–
>1.0 µg/mL	CCN1/C(=C/C=C/c2sc3ccccc3[n+]2CC(=O)N2CCOCC2)Oc2ccccc21 [drawing 37|CC(═O)morpholino|Et]	10.0	–
0.03 µg/mL	CCN1/C(=C/C=C/c2sc3ccccc3[n+]2CCC(=O)N(c2ccccc2)C(C)C)Oc2ccccc21 [drawing 37|CCC(═0)N(iPr)Ph|Et]	26.7	–
>1.0 µg/mL	CCC=NNC(N)=S [drawing 37|CCC═NNC(═S)N|Et]	10.0	–
0.3 µg/mL	CCN1/C(=C/C=C/c2sc3ccccc3[n+]2CCC=NNS(=O)(=O)c2ccc(C)cc2)Oc2ccccc21 [drawing 37|CCC═NNSO2Ph-4C|Et]	33.3	–
0.1 µg/mL	CCN1/C(=C/C=C/c2sc3ccccc3[n+]2CCC=O)Oc2ccccc21 [drawing 37|CCC═O|Et]	50.0	–
0.3 µg/mL	CCN1/C(=C/C=C/c2sc3ccccc3[n+]2CCNS(=O)(=O)c2ccc(C)cc2)Oc2ccccc21 [drawing 37|CCNSO2Ph-4C|Et]	26.7	–
0.3 µg/mL	CCN1/C(=C/C=C/c2sc3ccccc3[n+]2CCS(=O)(=O)CC)Oc2ccccc21 [drawing 37|CCSO2CC|Et]	>33.3	–
0.3 µg/mL	CCN(CC)C(=O)C[n+]1c(/C=C/C=C2\Oc3ccccc3N2CC)sc2ccccc21 [drawing 37|Cc(═0)N(Et)2|Et]	>33.3	–
0.8 µg/mL	CC[n+]1c(/C=C/C=C2\Oc3ccccc3N2CC(=O)c2ccccc2)sc2ccccc21 [drawing 37|Et|C(C═O)Ph]	3.7	–
0.1 µg/mL	CC[n+]1c(/C=C/C=C2\Oc3ccccc3N2CC(F)(F)F)sc2ccccc21 [drawing 37|Et|CC(F)3]	50.0	–
0.008 µg/mL	CC[n+]1c(/C=C(/C=C2\Sc3ccccc3N2C)SC)sc2ccccc21 [drawing 38|E/M|H|SMe|H]	37.5	–
0.07 µg/mL	CC[n+]1c(/C=C(/C=C2\Sc3ccccc3N2C)Sc2ccccc2)sc2ccccc21 [drawing 38|E/M|H|SPh|H]	10.0	–
0.16 µg/mL	CCN1C(=CC(=Cc2sc3ccccc3[n+]2CC)c2cccs2)Sc2ccccc21 [drawing 38|E|H|2Thienyl|H]	10.0	–
–	CCN1/C(=C/C(=C/c2sc3ccccc3[n+]2CC)C(=S)SC)Sc2ccccc21 [drawing 38|E|H|C(═S)SC|H]	>10.0	–
>0.32 µg/mL	CCN1/C(=C/C(=C/c2sc3ccccc3[n+]2CC)C(=S)[S-])Sc2ccccc21 [drawing 38|E|H|C(═S)S—|H]	<8.7	–
–	CCC(=Cc1sc2ccccc2[n+]1CC)C=C1Sc2ccccc2N1CC [drawing 38|E|H|Et|H]	10.0	–
–	CCN1C(=CC(C)=Cc2sc3ccccc3[n+]2CC)Sc2ccccc21 [drawing 38|E|H|Me|H]	8.0	–
0.24 µg/mL	CCN1C(=CC(=Cc2sc3ccccc3[n+]2CC)SC)Sc2ccccc21 [drawing 38|E|H|SMe|H]	1.25	–
